Measurements taken from patent US8865701B2, “Spiropyrrolidine beta-secretase inhibitors for the treatment of alzheimer'S disease” (Merck Sharp & Dohme Corp., priority 2009, dated 2014).

Biological target: BACE 1 (Homo sapiens (Human), UniProt P56817)
Experiment: ECL assay of beta-secretase (BACE) enzyme inhibition
Assay type: biochemical
Conditions: homogeneous end point ECL assay, biotinylated BACE substrate, soluble human enzyme, pH 6.5, rt
Procedure: Enzyme inhibition is determined as follows.
ECL Assay: A homogeneous end point electrochemiluminescence (ECL) assay is performed using a biotinylated BACE substrate. The Km of the substrate is approximated at 50 μM. A typical reaction contains approximately 0.6 nM enzyme, 0.25 μM of the substrate, and buffer (50 mM Pipes, pH 6.5, 0.1 mg/ml BSA, 0.2% CHAPS, 15 mM EDTA and 1 mM deferoxamine) in a total reaction volume of 100 μl. The reaction proceeds for 1-2 hrs and is then stopped by the addition of 150 μL of a quench cocktail solution (25 μl M Tris-HCl, pH 8.0, 50 μl INC buffer (2% BSA, 0.2% Tween-20 and 0.05% sodium azide diluted in Phosphate buffered saline (PBS) plus 75 μL PBS), containing Streptavidin coated magnetic beads and ruthenylated antibody which specifically recognizes the C-terminal residue of the product. The samples are subjected to M-384 (Igen Inc., Gaithersburg, Md.) analysis. Under these conditions, less than 10% of substrate is processed by BACE 1. The enzyme used in these studies is soluble (transmembrane domain and cytoplasmic extension excluded) human protein produced in a baculovirus expression system. To measure the inhibitory potency for compounds, 10 concentrations of inhibitors are prepared starting from 200 μM with three fold series dilution. Solutions of the inhibitor in DMSO are included in the reaction mixture (final DMSO concentration is 10%). All experiments are conducted at rt using the standard reaction conditions described above. To determine the IC50 of the compound, a four parameter equation is used for curve fitting. The errors in reproducing the dissociation constants are typically less than two-fold.

Chain of BACE 1 (P56817 46-457): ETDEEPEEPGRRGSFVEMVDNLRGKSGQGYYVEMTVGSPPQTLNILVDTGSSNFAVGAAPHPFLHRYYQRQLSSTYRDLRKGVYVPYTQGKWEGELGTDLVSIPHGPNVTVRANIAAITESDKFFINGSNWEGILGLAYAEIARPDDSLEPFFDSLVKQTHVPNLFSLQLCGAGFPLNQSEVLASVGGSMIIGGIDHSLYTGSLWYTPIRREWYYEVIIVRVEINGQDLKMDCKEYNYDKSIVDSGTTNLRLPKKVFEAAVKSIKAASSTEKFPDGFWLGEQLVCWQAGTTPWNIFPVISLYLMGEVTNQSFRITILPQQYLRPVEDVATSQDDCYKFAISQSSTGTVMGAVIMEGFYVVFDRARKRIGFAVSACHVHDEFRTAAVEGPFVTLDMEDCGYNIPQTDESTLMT

## Cc1cccc(C2CC(c3ccccc3)CCN2C(=O)[C@@H]2CNC[C@]23CCCc2nc(Cl)ccc23)c1 (stereo partly drawn) [Example 100, [(3R,4S)-2′-chloro-7′,8′-dihydro-6′H-spiro[pyrrolidine-3,5′-quinolin]-4-yl][2-(3-methylphenyl)-4-phenylpiperidin-1-yl]methanone]
  IC50: 450 nM

## CCc1ccc2c(c1)CCC[C@]21CNC[C@H]1C(=O)N1CCC(c2ccccc2)CC1 [Example 44, [(1R,4′S)-6-ethyl-3,4-dihydro-2H-spiro[naphthalene-1,3′-pyrrolidin]-4′-yl](4-phenylpiperidin-1-yl)methanone]
  IC50: 19000 nM

## CC(C)[C@@H]1C[C@H](c2ccccc2)CCN1C(=O)[C@@H]1CNC[C@]12CCCc1ccccc12 [Example 7, (1R,4′S)-3,4-dihydro-2H-spiro[naphthalene-1,3′-pyrrolidin]-4′-yl[(2S,4R)-4-phenyl-2-(propan-2-yl)piperidin-1-yl]methanone]
  IC50: 22000 nM

## O=C([C@@H]1CNC[C@]12CCc1cc(Br)ccc12)N1CCC(c2ccccc2)CC1 [Example 30, [(1R,4′S)-5-bromo-2,3-dihydrospiro[indene-1,3′-pyrrolidin]-4′-yl](4-phenylpiperidin-1-yl)methanone]
  IC50: 14000 nM

## O=C([C@@H]1CNC[C@]12CCCc1nc(Cl)ccc12)N1CCC2(C=Cc3ccccc32)CC1c1ccccc1 (stereo partly drawn) [Example 77, [(3R,4S)-2′-chloro-7′,8′-dihydro-6′H-spiro[pyrrolidine-3,5′-quinolin]-4-yl](2′-phenyl-1′H-spiro[indene-1,4′-piperidin]-1′-yl)methanone]
  IC50: 200 nM

## COC(C)(C)C1CCCCN1C(=O)[C@@H]1CNC[C@@]12CCCc1ccccc12 (stereo partly drawn) [Example 10, (1S,4′S)-3,4-dihydro-2H-spiro[naphthalene-1,3′-pyrrolidin]-4′-yl[2-(2-methoxypropan-2-yl)piperidin-1-yl]methanone]
  IC50: 20000 nM

## COc1cccc2c1OCC[C@]21CNC[C@H]1C(=O)N1CC[C@@H](c2ccccc2)C[C@H]1C1CCCC(F)(F)C1 (stereo partly drawn) [Example 3, [(4R,4′S)-8-methoxy-2,3-dihydrospiro[chromene-4,3′-pyrrolidin]-4′-yl][(2S,4R)-2-(3,3-difluorocyclohexyl)-4-phenylpiperidin-1-yl]methanone]
  IC50: 2190 nM

## O=C([C@@H]1CNC[C@]12CCc1ccccc12)N1CC[C@@H](c2ccccc2)C[C@H]1c1ccccc1 [Example 21, (1R,4′S)-2,3-dihydrospiro[indene-1,3′-pyrrolidin]-4′-yl[(2S,4R)-2,4-diphenylpiperidin-1-yl]methanone]
  IC50: 71 nM

## CC(C)c1cccc2c1CCC[C@]21CNC[C@H]1C(=O)N1CCC(c2ccccc2)CC1 [Example 31, (4-phenylpiperidin-1-yl)[(1R,4′S)-5-(propan-2-yl)-3,4-dihydro-2H-spiro[naphthalene-1,3′-pyrrolidin]-4′-yl]methanone]
  IC50: 24 nM

## O=C([C@@H]1CNC[C@]12CCCc1cc(Cl)ccc12)N1CCC(c2ccccc2)CC1 [Example 19, [(1R,4′S)-6-chloro-3,4-dihydro-2H-spiro[naphthalene-1,3′-pyrrolidin]-4′-yl](4-phenylpiperidin-1-yl)methanone]
  IC50: 920 nM

## O=C([C@@H]1CNC[C@]12CCSc1ccccc12)N1CCC(c2ccccc2)CC1 [Example 38, (3R,4S)-2′,3′-dihydrospiro[pyrrolidine-3,4′-thiochromen]-4-yl(4-phenylpiperidin-1-yl)methanone]
  IC50: 12000 nM
